Legend:
[1] = Hydrophobic drug loading capacity of NPs (UV-vis/HPLC); type: physicochemical
Description: In this drug loading strategy, DGKi or other hydrophobic drugs in organic solvent are mixed with an aqueous suspension of amph-NPs and dialyzed to remove the organic solvent, leading to partitioning of the drug into the hydrophobic pockets of the amph-NP ligand shell. This approach allowed one to load drugs that are nearly insoluble in aqueous solutions to high degrees of “solubility” via incorporation into MUS or MUSOT amph-NPs.
More detailed procedures to prepare small molecules-loaded NPs are as follows: Hydrophobic small molecules are dissolved in pure ethanol, and mixed with NPs in a dialysis tube against water. Dialysis tubes containing 100-500 Da molecular weight cut off allows ethanol to permeate while retains most small molecules. […] Loaded drugs were then quantified via absorbance using UV-vis spectrometer.
To test immunomodulatory drug loading capacity, small-molecule drug N-acetylcysteine (NAC) was loaded directly onto the gold core via sulfur-gold covalent bonding. […] The drug loading efficiency was determined by HPLC and UV-vis.
In this drug loading strategy, DGKi or other hydrophobic drugs in organic solvent are mixed with an aqueous suspension of amph-NPs and dialyzed to remove the organic solvent, leading to partitioning of the drug into the hydrophobic pockets of the amph-NP ligand shell. […] Loaded drugs were then quantified via absorbance using UV-vis spectrometer. […]

DCs, B and T cells = experiment: Immune cell activation in lymph nodes after s.c. R848; type: in vivo, C57BL/6 mice; conditions: doses above 5 μg, 24 h post injection
Description: From there they disperse into the body and drain into the lymph system where they encounter cells sensitive to their adjuvants. Serum inflammatory cytokines were tested one hour post injection given the short half-life of small molecules.
R848 (Resiquimod, a TLR7/8 agonist) was loaded into amph-NPs, and administered subcutaneously at the tail base. Serum was collected 1 hour post injection to evaluate systemic toxicity. Cells in LNs were isolated 24 h post injection to analyze immune cell activation.
Small molecules like R848 diffuse quickly into blood vessels, which may lead to severe systemic adverse effect. An experiment was designed to determine if by using lymph node targeted NPs, systemic adverse effects could be reduced while activation of local lymphocytes remains effective. Systemic toxicity was compared by measuring TNF, IL-6, IL-10, and MCP-1, and measuring activation of lymphatic cells.

Cytotoxic T cells = experiment: T cell proliferation under PD-L1 induced suppression; type: cell-based; conditions: αCD3/CD28 activated
Description: Cytotoxic T cells were incubated with αCD3/CD28 activating antibody and either control IgG, or with PD-L1 IgG (PD-1 agonist antibody) to induce T cell suppression, and further treated with vehicle, DGK inhibitor alone, DGK inhibitor loaded amph-NP, or amph-NP alone.

PD-1 = experiment: cell-based or functional assay

Compound: CN[C@@H](C)C(=O)N[C@H](C(=O)N1CCC[C@H]1c1nc(C(=O)c2ccc(F)cc2)cs1)C1CCCCC1 [LCL161]
- loading in amph-NPs [1]: loads well

Compound: CCOCc1nc2c(N)nc3ccccc3c2n1CC(C)(C)O [R848, Resiquimod]
- activation of immune cells in LNs (DCs, B and T cells): activated DCs, B and T cells

Compound: Cc1nc2sccn2c(=O)c1CCN1CCC(=C(c2ccccc2)c2ccc(F)cc2)CC1 [diacyl kinase inhibitor]
- % proliferating cells (Cytotoxic T cells; PD-L1 IgG (suppressed)): 2.71%
- % proliferating cells (Cytotoxic T cells; control IgG): 89.9%

Compound: PD-L1 IgG (PD-1 agonist antibody)
- % proliferating cells (cytotoxic T cells with anti-CD3/CD28, vehicle / no treatment; control IgG gave 71.3%) (PD-1): 0.98%
